{"source": "patent US7504117B2", "about": "“Extract of Nelumbinis Semen for the treatment of depression” (Purimed Co., Ltd., priority 2003, dated 2009)", "format_in_all_cases": "in vivo", "key": {"cortisol": {"test_system": "cortisol", "test": "Urinary cortisol concentration (125I-cortisol assay) in rats", "details": "rat urine", "procedure": "First, changes in concentrations of cortisol, which is a representative marker to determine whether the immune suppression has been overcome, according to administration of the Nelumbinis Semen extract were examined, as follows. After urine samples were collected from rats,\n(1) 1.0 ml of urine was placed into a tube with a cap, 2.0 ml dichloromethane was added to the tube, and the tube was covered with the cap with caution;\n(2) the mixture was vortexed for 5-10 min;\n(3) the mixture was centrifuged at 1500×g (rpm), the upper layer was aspirated, and 50 μl of the lower layer were aliquotted into coated tubes;\n(4) samples were evaporated for dryness.\nUrinary cortisol concentrations were measured as follows.\n(1) The coated tubes were individually labeled with NSB, Std (A-F), a control (CON6 No. 5) and sample numbers (for NSB, a green tube was used).\n(2) 25 μl of each of NSB, Std(A-F), a control (CON6 No. 5) and samples was added to the corresponding tube (free cortisol was added to the completely dried coated tube, and 25 μl of Std. A was added to the NSB tube).\n(3) 1.0 ml of ^125I-cortisol was added to the tubes, followed by mixing.\n(4) The tubes were incubated in a water bath at 37° C. for 45 min and aspirated.\n(5) After the content of the tubes was completely aspirated, radioactivity was measured for at least 1 min using a […]."}, "IL-2": {"test_system": "IL-2", "test": "Blood IL-2 concentration (luminometric immunoassay) in rats", "details": "rat blood", "quoted_text": "(1) 100 μl of assay diluent QD6-23 were aliquotted onto a microplate strip;\n(2) 50 μl of each sample and a standard were aliquotted onto the strip;\n(3) the strip was incubated with shaking at room temperature for 2 hrs;\n(4) the strip was washed four times;\n(5) 200 μl of an IL-2 conjugate was aliquotted onto the strip, and the strip was incubated with shaking at room temperature for 3 hrs;\n(6) 200 μl of a substrate (luminol+hydrogen peroxide) was aliquotted onto the strip, and the strip was incubated at room temperature for 20-40 min;\n(7) emitted light was measured using a luminometer; and\n(8) IL-2 concentrations were determined using a standard quantitative curve."}, "[1]": {"test_system": "CREB, BDNF and trkB genes", "test": "Oligonucleotide microarray gene expression in cerebral frontal cortex", "details": "depression-induced animal", "text": "Total RNA was isolated from the cerebral frontal cortex, and double-stranded cDNA was synthesized using the isolated RNA and an oligo (dT) 24-T7 primer. cRNA was synthesized by in vitro transcription using the synthesized cDNA, and was biotin-labeled and applied to an oligonucleotide microarray to determine gene expression patterns in each test group."}, "[2]": {"test_system": "CREB, BDNF and trkB proteins", "test": "2-DE of CREB, BDNF and trkB proteins in rat cerebral frontal cortex", "procedure": "Fourthly, an increase in the antidepressive markers, CREB, BDNF and trkB proteins, was examined in the rat cerebral frontal cortex by 2-DE, as follows. A behavioral test in rats was carried out for a period of three weeks, and the rats were administered with each drug. The brain frontal cortex was excised and centrifuged, and the supernatant was recovered. Each sample was mixed with an IEF sample buffer and loaded onto an IEF gel. Proteins were separated according to isoelectric point by isoelectric focusing (IEF) in the first dimension and according to molecular weight by SDS-PAGE at 100-200 V for about 1-2 hrs in the second dimension. The gel was stained by a Gel-Code Blue staining method and evaluated for elevated or newly emerged proteins by the antidepressive substances. The elevated or newly emerged proteins by the antidepressive substances were subjected to mass spectrometry."}, "[3]": {"test_system": "5-HT and NE neurotransmitters", "test": "5-HT and NE levels in chronic CMS model by microdialysis and HPLC-ECD", "procedure": "Also, according to a biochemical method, the therapeutic efficacy of a candidate drug was primarily examined by measuring changes in 5-HT and Norepinephrine (NE) levels in a chronic CMS model by microdialysis and HPLC-ECD. Catecholamine content was measured using an HPLC system equipped with an electrochemical detector. A mobile phase containing 0.05 M monobasic sodium phosphate, 0.1 N sodium acetic acetate and 1% methanol was adjusted to pH 4.4 with a phosphate buffer for HPLC. […] was composed of a Supelcosil LC-8-DB 3-μm column (150×4.6 mm, Supelco, Bellefonte, Pa.) protected by an LC-18 guard column."}, "[4]": {"test_system": "CREB, BDNF and trkB proteins", "test": "Western blotting of CREB, BDNF and trkB proteins in rat cerebral frontal cortex", "procedure": "Thirdly, an increase in the antidepressive markers, CREB, BDNF and trkB proteins, was examined in the rat cerebral frontal cortex by Western blotting, as follows. A behavioral test in rats was carried out for a period of three weeks, and the rats were administered with each drug. The brain frontal cortex was excised and centrifuged, and the supernatant was recovered. Each sample was mixed with a SDS-PAGE sample buffer to reduce proteins and boiled to denature proteins. Samples were loaded onto a SDS-PAGE (sodium dodecyl sulfate poly acrylamide gel electrophoresis) gel and run at 100-200 V for about 1-2 hrs. The SDS-PAGE gel was transferred onto a PVDF or nitrocellulose membrane by electro-transferation. The membrane was incubated with a primary antibody for a target protein, washed and incubated with a secondary antibody. Then, the target protein was detected by an enhanced chemiluminescent method."}, "lymphocytes": {"test_system": "lymphocytes", "test": "Lymphocyte cell number in rat blood (automatic analyzer)", "text": "Fourthly, changes in cell number of lymphocytes, which is a representative marker to determine whether the immune suppression has been overcome, according to administration of the Nelumbinis Semen extract, was examined as follows. After blood samples were collected from rats, changes in lymphocyte cell number were examined by the following method.\nWhen diluted blood corpuscles are suspended in an electrolyte solution (Isoton sol.) that is a separate […], the electrolyte suspension of particles is suctioned for 4 sec through an aperture with a predetermined size. The aperture is placed between an internal electrode and an external electrode, and a current flows between the electrodes. When particles pass through the aperture between the two electrodes, resistance increases while voltage decreases. The difference between decreased voltage and ground voltage is expressed as height by a threshold circuit. The number of pulses indicates the number of particles, and the amplitude of pulses is in proportion to the volume of corpulscles.\n2. Assay Method: Automatic Analyzer\n3. Machine Used: ADVIA120, Bayer, USA"}, "WBC": {"test_system": "WBC", "test": "WBC counting in rat blood (volume, conductivity, light scattering)", "procedure": "Thirdly, changes in WBC cell number, which is a representative marker to determine whether the immune suppression has been overcome, according to administration of the Nelumbinis Semen extract, was examined, as follows. After blood samples were collected from rats, cell volume, conductivity and light scattering were measured.\nCell volume was measured according to the Coulter Principle, which is universally recognized as a reference method for sizing of volumes. An aperture between two electrodes is placed in a cell flow, and direct current flows between the electrodes. When WBC maintained at nearly natural states passes through the aperture, electrical resistance to the direct current flow increases, thus generating a voltage pulse being in proportion to cell volumes. The size of the pulse is one of the distinct features allowing determination of the type of WBC. However, to distinguish between two types of cells with similar size, a different phenotype allowing the distinction of two types of cells should be measured. For example, mature basophils and small lymphocytes are about 9-12 jjm in diameter, and immature prolymphocytes and mature neutrophils are 12-14 μm in diameter. Different types of cells with similar size are difficult to determine based on only their size, and thus, in this case, conductivity and light scattering are simultaneously measured. […]"}}}
{"smiles": "CNCCC(Oc1ccc(C(F)(F)F)cc1)c1ccccc1", "note": "(stereo not drawn) [Prozac, fluoxetine]", "values": [{"measurement": "cortisol concentrations", "setting": "cortisol", "result": "levels similar to a normal group"}, {"measurement": "IL-2 concentrations", "setting": "IL-2", "result": "levels similar to a normal group"}, {"measurement": "expression level of BDNF gene", "setting": "[1]", "result": "significantly increase"}, {"measurement": "expression level of CREB gene", "setting": "[1]", "result": "significantly increase"}, {"measurement": "expression level of trkB gene", "setting": "[1]", "result": "significantly increase"}, {"measurement": "protein level of BDNF", "setting": "[2]", "result": "significantly increase"}, {"measurement": "protein level of CREB", "setting": "[2]", "result": "significantly increase"}, {"measurement": "protein level of trkB", "setting": "[2]", "result": "significantly increase"}, {"measurement": "level of 5-HT", "setting": "[3]", "result": "significantly increase"}, {"measurement": "level of NE", "setting": "[3]", "result": "significantly increase"}, {"measurement": "protein level of BDNF", "setting": "[4]", "result": "significantly increase"}, {"measurement": "protein level of CREB", "setting": "[4]", "result": "significantly increase"}, {"measurement": "protein level of trkB", "setting": "[4]", "result": "significantly increase"}, {"measurement": "cell number of lymphocytes", "setting": "lymphocytes", "result": "levels similar to a normal group"}, {"measurement": "cell number of WBC", "setting": "WBC", "result": "levels similar to a normal group"}]}
